Common to all, as to assay: NCI-60 cell line screen, 48 h
Experiment [1] concerns U251 CNS.
The test system of experiment [2] is OVCAR-5 ovarian.
Experiment [3] has as its system NCI-H226 lung.
In experiment [4] the test system is 786-0 renal.
Experiment [5] deals with HT29 colon.
For experiment [6], the system named is MDA-MB-435.
For experiment [7], the system named is A549 NSCLC.
Experiment [8] concerns SF-268 CNS.
For experiment [9], the system named is SNB-75 CNS.
The test system of experiment [10] is OVCAR-8 ovarian.

“And” between values parts separate entries of the source, which are not always exact repeats. Equal entries are not always repeated.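 Interpolation was linear, between the two tested concentrations surrounding the appropriate level; five concentrations were tested over 48 hours in 96-well plates. The concentration for 50% growth inhibition is given as GI50. TGI marks complete inhibition of growth.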 Where only a bound is given, the exact number is not on record here.

For the compound `O=C1/C(=C/c2cccc([N+](=O)[O-])c2)COc2ccc(O)cc21`, the GI50 in experiment [1] was 1.56 µM; in experiment [2] it was 2.11 µM; in experiment [3] it was 2.19 µM; in [4], 1.85 µM; in experiment [5] it was 1.92 µM; in experiment [6], 1.91 µM. In addition, the GI50 is 4.66 µM in [7], 2.86 µM in experiment [8], 2.63 µM in experiment [9] and 2.67 µM in experiment [10]. Also, the TGI was determined as 2.9 µM in [1]; 4.76 µM in experiment [2]; 5.23 µM in experiment [3]; 3.83 µM in [4]; 4.58 µM in experiment [5]; 4.05 µM in [6]. Besides, the TGI came out at 16.8 µM in experiment [7], 10.3 µM in experiment [8], 14.9 µM in experiment [9] and 9.52 µM in [10].
Consider `NC(=O)c1sc(-n2cnc3ccccc32)cc1OCc1ccccc1Br`, for which the GI50 in [1] is 4.44 µM; in experiment [2], 4.94 µM; in [3], 11.9 µM; in experiment [4], 11.1 µM; in experiment [5], 1.06 µM; in [6] it was 0.795 µM. Moreover, the GI50 in experiment [7] is 6.06 µM; in experiment [8] it was 4.98 µM; in experiment [9] it was 10.2 µM; in [10] it was 4.83 µM. The TGI in experiment [1] was more than 25 µM; in experiment [2], more than 25 µM; in experiment [3], more than 25 µM; in [4], more than 25 µM; in experiment [5], more than 25 µM; in experiment [6] it was 5.47 µM. Moreover, the TGI in experiment [7] was more than 25 µM; in experiment [8], more than 25 µM; in experiment [9] it was more than 25 µM; in experiment [10], 23.5 µM.
With `Cc1coc2c1CC1(C)C(CCC(O)C1C)C2` (stereo not drawn), the TGI in experiment [1], in experiment [2], in [3], in [4], in experiment [5] and in experiment [6] was more than 100 µM throughout. The TGI in experiment [7], in experiment [8], in experiment [9] and in experiment [10] was more than 100 µM each time.
Consider `O=C(Nc1ccccc1)NS(=O)(=O)c1ccc(-n2nc3c(c2-c2cccs2)Cc2ccccc2-3)cc1`, for which the GI50 was 22.9 µM in experiment [1]; 20.1 µM in [2]; 19.2 µM in experiment [3]; 17.6 µM in experiment [4]; 26.7 µM in experiment [5]; 22.1 µM in experiment [6]. The GI50 in [7] is 20.8 µM; in experiment [8], 26 µM; in [9] it was 70.4 µM; in experiment [10] it was 28.3 µM. The TGI in experiment [1] was 55.3 µM; in [2], 89.7 µM; in experiment [3], 59 µM; in experiment [4], 35.2 µM; in experiment [5], more than 100 µM; in experiment [6] it was 58.3 µM. Also, the TGI in experiment [7], in [8], in experiment [9] and in [10] was more than 100 µM each time.
As for `O=S(=O)(NC1=NCCN1C(=S)SN1CCn2c1nsc2=S)c1ccc(OC(F)(F)F)cc1`, the GI50 was 14.4 µM in [1]; 21.8 µM in experiment [2]; 18 µM in [3]; 8.53 µM in experiment [4]; 11.4 µM in experiment [5]; 4.47 µM in [6]. Further, the GI50 is 21.1 µM in [7], 11 µM in [8], 14.7 µM in [9] and 16.3 µM in [10]. Further, the TGI in experiment [1] is 29.4 µM; in experiment [2] it was 36.7 µM; in [3], 38.7 µM; in experiment [4], 21.6 µM; in [5], more than 100 µM; in experiment [6], 24.5 µM. Moreover, the TGI in [7] amounted to 54.3 µM; in [8] it was 98.1 µM; in experiment [9], 34.4 µM; in experiment [10] it was 39.3 µM.
Take `COc1ccc(C(=O)Cn2c(C(=O)c3ccccc3)nc(-c3ccc(OC)cc3)c2-c2ccc(OC)cc2)cc1`: the GI50 is 64.9 µM in [1]; more than 100 µM in experiment [2]; more than 100 µM in [3]; 46.1 µM in [4]; more than 100 µM in [5]; more than 100 µM in experiment [6]. The GI50 in [7] was more than 100 µM; in experiment [8], 86.4 µM; in experiment [9] it was 7.71 µM; in experiment [10] it was more than 100 µM. Further, the TGI in [1], in experiment [2], in experiment [3], in [4], in experiment [5] and in experiment [6] was more than 100 µM in each case. Also, the TGI in [7] was more than 100 µM; in experiment [8], more than 100 µM; in experiment [9] it was 38.4 µM; in [10] it was more than 100 µM.
For the compound `c1ccc2cc(-c3cc(-c4cc(-c5ccc6ccccc6c5)on4)no3)ccc2c1`, the TGI in experiment [1], in [2], in [3], in experiment [4], in experiment [5] and in [6] was more than 100 µM each time. In addition, the TGI in experiment [7], in experiment [8], in [9] and in [10] was more than 100 µM throughout.
Consider `COC1CCC(N2C(=O)CNc3ncc(-c4ccc(C(C)(C)O)nc4)nc32)CC1` (stereo not drawn), for which the GI50 in experiment [1] is 1.41 µM and 1.06 µM; in experiment [2], 0.918 µM and 0.273 µM; in [3], 0.305 µM and 0.226 µM; in experiment [4], 0.962 µM and 0.243 µM; in [5], 1.83 µM and 0.472 µM; in experiment [6], 0.668 µM and 0.167 µM. Further, the GI50 in experiment [7] is 1.48 µM and 0.337 µM; in experiment [8], 1.97 µM and 0.356 µM; in [9] it was 0.281 µM and 0.0543 µM; in [10] it was 1.27 µM and 0.436 µM. Besides, the TGI in experiment [1] is more than 33.4 µM; in experiment [2], more than 44.8 µM; in experiment [3] it was more than 41.8 µM; in experiment [4] it was more than 32.1 µM; in experiment [5], more than 38.4 µM; in [6], 3.28 µM. For the same compound, the TGI in experiment [7] is more than 34.5 µM; in experiment [8], more than 41.5 µM; in experiment [9] it was 3.54 µM and 1.6 µM; in [10], more than 35.2 µM.
As to `CCN(CCO)CC1CCCC2CCCCC21` (stereo not drawn), the TGI in [1], in experiment [2], in [3], in [4], in experiment [5] and in experiment [6] was more than 100 µM in each case. The TGI in experiment [7], in experiment [8], in experiment [9] and in [10] was more than 100 µM in each case.
As to `O=C(Nc1ccc(Cl)c(Cl)c1)Nc1ccc(Cl)c(Cl)c1`, the GI50 in [1] was 2.67 µM and 1.77 µM; in experiment [2], 2.74 µM and 4.27 µM; in experiment [3] it was 3.05 µM and 3.22 µM; in experiment [4] it was 3.79 µM and 3.21 µM; in experiment [5], 3.27 µM and 2.43 µM; in experiment [6] it was 3.06 µM and 2.8 µM. Also, the GI50 in experiment [7] is 2.98 µM and 2.29 µM; in experiment [8], 3.92 µM and 3.88 µM; in experiment [9] it was 2.15 µM and 2.85 µM; in experiment [10] it was 3.12 µM and 2.54 µM. Also, the TGI in experiment [1] is 11.2 µM and 5.14 µM; in experiment [2], 7.53 µM and 17.6 µM; in experiment [3] it was 15.2 µM and 15.8 µM; in [4], 14.4 µM and 13 µM; in [5] it was 12.9 µM and 6.82 µM; in [6], 11.4 µM and 8.8 µM. The TGI in experiment [7] is 15.6 µM and 10.6 µM; in [8] it was 15.1 µM and 14.5 µM; in experiment [9], 7.81 µM and 18.8 µM; in experiment [10], 14.1 µM and 9.83 µM.
In the case of `NC(=O)c1cccc2cn(-c3ccc([C@@H]4CCCNC4)cc3)nc12`, the GI50 was 12.6 µM in [1]; 24 µM in [2]; 14.4 µM in experiment [3]; 16.2 µM in [4]; 12.9 µM in experiment [5]; 12.7 µM in experiment [6]. For the same compound, the GI50 was 13.1 µM in [7], 9.13 µM in [8], 11.8 µM in experiment [9] and 12.4 µM in experiment [10]. Moreover, the TGI was 29 µM in [1]; 64.8 µM in [2]; 30.1 µM in experiment [3]; 33 µM in experiment [4]; 32 µM in experiment [5]; 26.5 µM in [6]. The TGI came out at 28 µM in experiment [7], 28.5 µM in experiment [8], 25.5 µM in [9] and 38.5 µM in experiment [10].
`CC12CCC(O)CC1CCC1C2CCC2(C)C(C3=CC(=O)OC3)CCC12O` (stereo not drawn): the TGI amounted to 27.8 µM in experiment [1]; 16.9 µM in experiment [2]; 27.7 µM in [3]; 4.78 µM in experiment [4]; 13.6 µM in experiment [5]; 9.38 µM in experiment [6]. Further, the TGI turned out to be 1.96 µM in experiment [7], 7.07 µM in experiment [8], 28.7 µM in experiment [9] and 10.1 µM in experiment [10].
As to `Cn1cnc([N+](=O)[O-])c1Sc1nnc(-c2cccnc2)n1C`, the TGI is more than 100 µM in experiment [1]; more than 100 µM in experiment [2]; more than 81.6 µM in experiment [3]; 41.6 µM in experiment [4]; 47.9 µM in experiment [5]; 30.2 µM in [6]. Also, the TGI in [7] is more than 100 µM; in experiment [8], more than 95.7 µM; in [9] it was more than 100 µM; in experiment [10], 59.7 µM.
With `O=C1CC(c2ccc3c(c2)OCO3)Nc2ccccc21` (stereo not drawn), the GI50 was 8.46 µM in [1]; 11.1 µM in [2]; 24.6 µM in [3]; 8.11 µM in experiment [4]; 7.76 µM in [5]; 4.94 µM in [6]. Also, the GI50 in [7] was 17.1 µM; in experiment [8], 10.4 µM; in experiment [9], 4.04 µM; in [10] it was 14.4 µM. Besides, the TGI in experiment [1] is 24.7 µM; in experiment [2] it was more than 55.4 µM; in experiment [3], more than 88 µM; in experiment [4], 40.2 µM; in experiment [5], 33.1 µM; in [6], 31.1 µM. Further, the TGI in experiment [7] amounted to 76.6 µM; in [8], 35.6 µM; in [9] it was 18.5 µM; in [10] it was 63.3 µM.
Regarding `Cc1ccc(C(=O)/C(=C/c2ccc([N+](=O)[O-])cc2)SCc2ccc(Cl)cc2)cc1`, the GI50 was 1.11 µM in [1]; 2.5 µM in [2]; more than 100 µM in [3]; 1.66 µM in experiment [4]; 0.676 µM in [5]; 1.86 µM in [6]. Moreover, the GI50 in experiment [7] is 98.5 µM; in [8], 2.44 µM; in experiment [9], 20.4 µM; in [10] it was 1.86 µM. The TGI is 2.4 µM in experiment [1]; 9.12 µM in experiment [2]; more than 100 µM in experiment [3]; 3.58 µM in [4]; 2.86 µM in [5]; 4.3 µM in [6]. In addition, the TGI in [7] was more than 100 µM; in [8], 15.8 µM; in experiment [9], more than 100 µM; in experiment [10] it was 5.64 µM.
For the compound `Cn1c2ccccc2c2c(Nc3ccccc3)c3ccccc3nc21`, the GI50 is 22.7 µM in experiment [1]; more than 100 µM in experiment [2]; 16.4 µM in experiment [3]; 17.3 µM in [4]; 5.66 µM in [5]; 2.7 µM in experiment [6]. Moreover, the GI50 was 19.2 µM in experiment [8], 26.5 µM in [9] and 27.3 µM in experiment [10]. Moreover, the TGI is 71.8 µM in experiment [1]; more than 100 µM in experiment [2]; 46.4 µM in experiment [3]; 41.8 µM in [4]; 60.7 µM in experiment [5]; 6.85 µM in experiment [6]. In addition, the figures for the TGI in experiment [8], in experiment [9] and in experiment [10] were 53 µM, more than 100 µM and more than 100 µM, respectively.

Source of the values: PubChem BioAssay (NCI).
